Test results as given in patent US20150094217A1, “TEST FOR DIAGNOSING RESISTANCE TO AZACITIDINE” (UNIVERSITÉ NICE SOPHIA ANTIPOLIS, priority 2012, published 2015).

What was measured:
[1] = tested on: SKM1-S cells; assay: Cell metabolism by XTT test after azacitidine stimulation; assay type: cell-based; conditions: 1 μM azacitidine, 24 h
Procedure: The SKM1-S and SKM1-R cells are transfected with an interfering RNA:Luc siRNA, BCL2L10 siRNA or Bcl-2 siRNA. After 72 h of transfection, the cells are stimulated with 1 μM of azacitidine.
In FIG. 7, the cell metabolism is measured 24 hours after stimulation by means of the XTT test ([…]). The results shown correspond to the average standard error of the mean (±SEM) of three independent experiments performed four times.
To determine whether the overexpression of BCL2L10 is a cause rather than a consequence of azacitidine resistance, the SKM1-S and SKM1-R cells were transfected with a control siRNA or with siRNA directed against one or the other of the BCL2L10 or Bcl-2 proteins, then treated for 24 h with or without azacitidine, before determining cell viability and apoptosis. […] In addition, apoptosis was the main mechanism by which the extinction of the expression of the BCL2L10 gene enabled azacitidine sensitization by increasing the quantity of active caspase-3.

[2] = Overall survival (Kaplan-Meier) of MDS or AML patients treated with AZA, cohort 1; assay type: in vivo, human
From the text: The comparison of the overall survival with transplantation according to Kaplan-Meier was examined for patients with MDS or AML treated with AZA, as well as the percentage of cells expressing BCL2L10 in their bone marrow.
An overall survival of 3 months was estimated at 95% for the sub-groups weakly expressing BCL2L10 compared with 51% for the sub-groups strongly expressing BCL2L10. For all of the patients in the sub-group strongly expressing BCL2L10, the disease progressed.

Nc1ncn([C@@H]2O[C@H](CO)[C@@H](O)[C@H]2O)c(=O)n1 [Azacitidine]
cell metabolism [1]: loss in cell metabolism
overall survival of 3 months ([2]; sub-groups strongly expressing BCL2L10, cohort 1): 51%
overall survival of 3 months ([2]; sub-groups weakly expressing BCL2L10, cohort 1): 95%
